Experimental data taken from patent US20160228444A1, “NUCLEOSIDE ANALOGS AND USES THEREOF” (Ramot at Tel-Aviv University Ltd., priority 2015, published 2016).
Entries after “also recorded” stand apart in the source; their conditions may differ. Read-outs that look alike come from different tables or passages of the source.

Tests used:
TLR4 [1] = experiment: TLR4 expression in LPS-treated THP1 cells (anti-TLR4 antibodies, FACS); type: cell-based; conditions: 1 μg/ml LPS, AN446 20 or 40 μM, FIG. 7A
Method: (§1) The effect of AN446 on inflammation-associated pathways was evaluated in the monocytic THP1 cell line and in the MDA-MB-231 breast carcinoma cell line. Supernatants of treated THP1 cells were collected and IL-6, IL-10 and TNF-α concentrations were quantified by ELISA (R&D systems). TLR4 expression in THP1 cells was assessed using fluorescent anti-TLR4 antibodies and FACS analysis. In addition, gene expression for MCP-1, TNF-α and TLR4 in MDA-MB-231 was evaluated by qRT-PCT, following treatment with AN446 and/or paclitaxel.

IL-6 = IL-6 in supernatant of LPS-treated THP1 cells (ELISA); type: cell-based; conditions: 1 μg/ml LPS, AN446 20 or 40 μM, FIG. 7B
Method: as §1

HUT-78 CTCL cells = experiment: Median-effect drug interaction, MTT viability, 72 h; type: cell-based, human; conditions: Homo sapiens
Method: (§2) Cell viability was determined by an MTT cell viability assay after 48 hours. MyLa cells (10^4 cells/well), Hut78 cells (5×10^3 cells/well) and normal PBLs (10^5 cells/well) were seeded in 96 well-plates. The PBLs were activated with 40 μg/10^6 cells of phytohemagglutinine (PHA) for 24 h before the experiment.
(§3) The ratios of the drug combination were based on the ratio of their IC50 of each drug alone. Cell viability was determined by MTT assay, as described hereinabove. The drugs were added to the cells and incubated for 72 h.

IL-10 = IL-10 in supernatant of LPS-treated THP1 cells (ELISA); type: cell-based; conditions: 1 μg/ml LPS, FIG. 7B
Method: as §1

fibrous collagen = experiment: Fibrosis in tumor, heart and kidney of U251 xenograft mice (Picrosirius Red / Fast Green); type: in vivo
Method: AN446 was tested in vivo using a xenograft of glioblastoma (U251 cells) in mice.

[2] = tested on: proliferating fibroblasts in cardiac tissue; experiment: Proliferating fibroblasts in heart sections (Ki67 / vimentin immunostaining); type: in vivo, mice; conditions: co-administration with doxorubicin, FIGS. 8B, 8C
From the text: In addition, by double-staining heart sections by immunostaining for the fibroblast marker vimentin and the proliferation marker Ki67, it was observed that most of the proliferating (Ki67-positive) cells in hearts of doxorubicin-treated mice were fibroblasts (vimentin-positive).

TNF-α = TNF-α gene expression in MDA-MB-231 cells (qRT-PCR); type: cell-based, human; conditions: combination with paclitaxel, FIG. 7C
Method: as §1

TLR4 [3] = experiment: TLR4 gene expression in MDA-MB-231 cells (qRT-PCR); type: cell-based, human; conditions: FIG. 7C
Method: as §1

PBL = experiment: Median-effect drug interaction, MTT viability, 72 h; type: cell-based; conditions: Homo sapiens
Method: as §2, §3

TLR4 [4] = conditions: 24 hours, concentrations based on the IC50, FIG. 15
pH2AX in H9C2 cells = experiment: Phosphorylated H2AX (Western blot), 24 or 48 hours; type: cell-based, rat; conditions: FIG. 13B
Method: (§4) The effects of the abovementioned HDAC inhibitors on DNA damage and repair were then assessed by evaluating changes in levels of phosphorylated histone H2AX (pH2AX), a marker of DNA double-strand breaks, and Rad51, a marker of homologous recombination-guided DNA repair of double-strand breaks [Nagathihalli & Nagaraju, Biochim Biophys Acta 2011, 1816:209-218; Rogakou et al., J Biol Chem 1998, 273:5858-5868].
(§5) U251 and H9C2 cells were treated with the HDAC inhibitors for 24 or 48 hours, and then subjected to Western blot analysis.

Rad51 in U251 cells = experiment: Rad51 (Western blot), 24 or 48 hours; type: cell-based, human; conditions: FIG. 14A
Method: as §4, §5

[5] = tested on: U251 MG human glioma cells; experiment: FACS viability, annexin V-FITC / PI; type: cell-based
Method: (§6) Cell viability by flow cytometry analysis (FACS) analysis was determined using the Mebcyto apoptosis kit (MBL-Japan). The cell lines 4T1, U251 (2×10^5 cells/well), astrocytes and the cardiomyoblastic cell line H9C2 (5×10^5 cells/well) were seeded in six-well plates. Following treatment they were trypsinized, washed with PBS, resuspended in […] of binding buffer and double-stained with annexin V-FITC and propidium iodide (PI) according to the manufacturer's instructions. The stained cells were subjected to FACS analyses (Calibur cytometer, Becton Dickinson) where 30,000 cells were allowed to flow for each determination point and the percentage of cells in each state (viability or death) was defined by their distribution in fluorescence dot-plots using WinMdi 2.8 software (Scripps Research Institute, La-Jolla, USA).
(§7) The apoptotic effect of AN446, Dox and their combination was evaluated in U251 and 4T1 cancer cells, and in the non-cancerous rat cardiomyoblast cell line (H9C2) and in primary rat astrocytes, using procedures previously described for AN7 [Tarasenko et al., Invest New Drugs 2012, 30:130-143].

[6] = tested on: murine mammary carcinoma 4T1; experiment: FACS viability, annexin V-FITC / PI; type: cell-based; conditions: AN446 24 h; 200 nM Dox 5 h; combination compared to Dox alone; FIG. 1C
Method: as §6, §7

CCCC(CCC)C(=O)Nc1nc2c(ncn2COCCOC(=O)C(CCC)CCC)c(=O)[nH]1 [AN446, N-valproyl-9-(2-valproyloxy)ethoxymethyl-guanine]
LPS-induced expression of TLR4 (TLR4 [1]): suppressed
LPS-induced expression of IL-6 (IL-6): suppressed
IC50 (HUT-78 CTCL cells; HuT78, HUT-78, single agent, Table 2): 28 µM
IC50 (HUT-78 CTCL cells; HuT78, read-out: com IC50, HUT-78, in combination with Dox): 11 µM
expression of IL-10 (IL-10): doubled
doxorubicin-induced fibrosis in the heart (fibrous collagen; heart, co-administration with doxorubicin): attenuated the doxorubicin-induced fibrosis
doxorubicin-induced fibrosis in the kidneys (fibrous collagen; kidneys, co-administration with doxorubicin): attenuated the doxorubicin-induced fibrosis
fibrosis in the tumor (fibrous collagen; tumor, single agent, FIG. 8A): reduced fibrosis
doxorubicin-induced proliferation of fibroblasts in cardiac tissue [2]: significantly reduced the doxorubicin-induced proliferation of fibroblasts
paclitaxel-induced increase in expression of TNF-α (TNF-α): significantly attenuated
paclitaxel-induced increase in expression of TLR4 (TLR4 [3]; combination with paclitaxel): significantly attenuated
expression of TLR4 (TLR4 [3]; single agent): reduced expression of TLR4
IC50 (PBL; read-out: com IC50, PBL, in combination with Dox): 187 µM
IC50 (PBL; single agent, Table 2): 198 µM
TLR4 expression in MDA-231 cells (TLR4 [4]): considerably more effective than valproic acid at repressing TLR4
pH2AX levels in cardiomyocytes (H9C2) (pH2AX in H9C2 cells): did not increase pH2AX levels
expression of Rad51 in U251 cancer cells (Rad51 in U251 cells): reduced expression of Rad51
cell death in U251 glioblastoma cells ([5]; 24, 48 or 72 hours, each inhibitor at its U251 IC50, FIG. 9, listed as valprostat): effective at inducing cell death in glioblastoma cells after 24, 48 or 72 hours; also recorded: particularly more effective than the other tested HDAC inhibitors at inducing cell death after 24 hours
viability / mortality of U251 cells ([5]; AN446 24 h, 200 nM Dox 5 h, combination compared to Dox alone, FIG. 1C): significantly enhanced the mortality
therapeutic index (ratio of cancer cell mortality to cardiomyoblast mortality) ([5]; U251 vs H9C2, at each time point (24, 48, 72 hours), FIG. 11): more than 2
viability / mortality of 4T1 cells [6]: significantly enhanced the mortality
